# Reference: US20020162794A1, “Anaerobic digestion” (priority 2001, published 2002)
# Values joined by “and” are separate entries in the source; they are usually repeats but may differ in a detail not shown here. Identical values can stand only once.
# Legend:
# [1] = test system: bacteria of the mixed anaerobic digester culture; assay: Bacterial colony counts from formate bioreactors; type: cell-based
# Procedure: Procedure for Bacterial Colony Counts from Formate Bioreactors
# 1. Collect samples from each bioreactor in sterile 30-mL glass vials with screw caps.
# 2. All subsequent operations are performed aseptically in the anaerobic chamber under an atmosphere of 3% H2/7% CO2/90% N2.
# 4. Seed 0.1-mL samples form the dilution blanks into tryptic soy agar plates.
# 5. Inoculate three plates for each dilution. Final dilutions on the plates are 10^−3 and 10^−4
# 6. Incubate all plates anaerobically for 3-4 days at room temperature (approximately 25° C.) prior to manually counting the numbers of colonies on each plate.
# 7. Calculate the numbers of colony-forming units (CFU) per ml in the original samples.
# [2] = test system: mixed culture from a publicly owned anaerobic digester; assay: Identification of predominant colony types in the mixed culture; type: cell-based
# [3] = test system: anaerobic mixed culture (domestic sewage); assay: Anaerobic digestion of domestic sewage, overall effect of formate salt concentration
# Procedure: The various formate salts include, but are not limited to sodium formate (NaHCOO), potassium formate (KHCOO), ammonium formate (NH4COO), calcium formate (Ca(HCOO)2), and others either singly or in combination. These formate salts have been tested for concentrations ranging from 10 mg/L (˜10 ppm) to as high as […] (100,000 mg/L) based on the organic matter available for digestion.
# Two tests were run in which sodium formate in concentrations ranging from a few parts per million (ppm) up to ten percent (10%) on a mass basis were added to samples taken from a publicly owned anaerobic digester. The samples were first cultured in laboratory sized batch reactors. The twelve batch reactors were then sampled, and studied for periods of up to fifty-five days. The process variables that were monitored included COD (Chemical Oxygen Demand), TS (Total Solids), TVS (Total Volatile Solids) and the pH of the culture. Time and the initial sodium formate concentration level were the independent variables. Finally measurements were also made of the bacterial counts at the beginning and at the end of the fifty five day period.
# Municipal sludge from the city of Lubbock, Wastewater Treatment Plant was digested in 12 batch digesters. Using twelve batch reactors allowed the collection of control reactors data (i.e., no formate in the reactors) in triplicate, titration studies of increasing formate concentration, and duplicates/triplicates of varying formate concentration. Experiments were conducted in the laboratories of Texas Tech University.
structure (smiles),measurement,setting,value
O=C[O-].[Na+] [sodium formate],bacterial counts,"[1]; 100 ppm to 100,000 ppm, lower counts at higher concentrations",> 10^5 CFU per milliliter
same,Colony forming units per mL,"[1]; 5000 ppm, reactor 3",0.59 × 10^7 per mL
same,Colony forming units per mL,"[1]; 10000 ppm, single reactors (2, 4, 5)",0.26 × 10^7 per mL and 0.19 × 10^7 per mL and 0.38 × 10^7 per mL
same,colony types identified,[2]; 10% level,only Cellulomonas cellulans was identified along with large masses of yeast cells
same,bio-diversity of the mixed culture,[2]; 1000-5000 ppm,increase the bio-diversity of the mixed culture
same,number of predominant colony types,"[2]; 1000 ppm, control had two",eight
same,growth of colonies in the mixed culture,[2]; lower levels (≦5000 ppm),facilitate growth of some of the more dormant colonies in the mixed culture
same,effect on anaerobic digestion over the tested concentration range,"[3]; 10 mg/L to 100,000 mg/L based on the organic matter available for digestion",beneficial at all concentration levels
same,concentration range of greatest effects,"[3]; 10 mg/L to 100,000 mg/L tested","greatest effects being observed over the 100 ppm to the 2,000-mg/L range"
same,cellular activity in the mixed culture,[3]; above the 5000 ppm concentration level,"slightly, but still progressively more inhibited"
same,effect of accidental addition of too much (titration data),[3]; overdose,would not shut down the digester culture
same,effect on anaerobic digestion process,"[3]; up to 5000 ppm, batch reactors, up to 55 days",facilitate the anaerobic digestion process at all concentration levels up to 5000 ppm
